Like-named read-outs stand apart in the source and are kept apart here.
Test: in vivo
Conditions: for concentration at 7 day: day 7
From the text: General Protocol for Prodrugs Rat PK Studies Conducted at ChemPartner, China
A total of three naïve male Wistar Han rats, 200-250 g, were received from Beijing VR Laboratory Animal Co. LTD. Following an acclimation period, the animals were assigned to the study based on acceptable health as determined by a staff veterinarian and catheter patency. Fasting of the animals before or after dosing was not required.
On Day 1, each animal received a single intramuscular injection of prepared test article at a target dose level of 20 mg/kg equivalent of EFdA and at a dose volume of 2 mL/kg. The injection sites were at gastrocnemius and identified with an indelible marker for daily monitoring during the study. The animals were manually restrained for dosing and were not sedated. The dose suspension was mixed well by inversion before each dose to ensure homogeneity. […] In addition, all animals are monitored twice daily by the veterinary staff for clinical abnormalities.
Blood samples were collected from the study animals as detailed in the sample collection Table 6 below
Each blood sample for PK (200 μL) was collected from tail vein. The blood was transferred to a tube containing NaF/Na2EDTA anticoagulant and inverted several times to mix. Draw 150 μL whole blood from the tube, add 150 uL 100 mM ammonium acetate, pH 4 buffer and mix well. The resulting blood samples were transferred to individual polypropylene tubes and immediately placed on dry ice until storage at nominally −80° C. prior to LC-MS/MS analysis.

[1] = day 63, single IM Example 11A 20 mg/kg equivalent of EFdA
[2] = day 70, single IM Example 11A 20 mg/kg equivalent of EFdA
[3] = day 77, single IM Example 11A 20 mg/kg equivalent of EFdA
[4] = day 84, single IM Example 11A 20 mg/kg equivalent of EFdA
[5] = day 91, single IM Example 11A 20 mg/kg equivalent of EFdA
[6] = day 21, single IM Example 16A 20 mg/kg equivalent of EFdA
[7] = day 28, single IM Example 16A 20 mg/kg equivalent of EFdA
[8] = day 35, single IM Example 18A 54 mg/kg
[9] = day 42, single IM Example 18A 54 mg/kg
[10] = day 49, single IM Example 18A 54 mg/kg
[11] = day 35, single IM Example 19A 55 mg/kg
[12] = day 42, single IM Example 19A 55 mg/kg
[13] = day 49, single IM Example 19A 55 mg/kg

For `C#C[C@]1(COP(=O)(N[C@@H](Cc2ccccc2)C(=O)OCCCCCCCCCCCC)OCC(=O)OCCCCCCCCCCCC)O[C@@H](n2cnc3c(N)nc(F)nc32)C[C@@H]1O` (single isomer, unassigned) [Example 11A], the “Mean concentration of EFdA” value (day 21, single IM Example 11A 20 mg/kg equivalent of EFdA) was “BQL (BQL = below quantification limit, 0.3-0.5 ng/mL for Example 11A and 0.1-0.3 ng/mL for EFdA)”, the “Mean concentration of EFdA” value (day 28, single IM Example 11A 20 mg/kg equivalent of EFdA) was “BQL (BQL = below quantification limit, 0.3-0.5 ng/mL for Example 11A and 0.1-0.3 ng/mL for EFdA)” and the “Mean concentration of EFdA” value (day 35, single IM Example 11A 20 mg/kg equivalent of EFdA) was “BQL (BQL = below quantification limit, 0.3-0.5 ng/mL for Example 11A and 0.1-0.3 ng/mL for EFdA)”. The “Mean concentration of EFdA” value (day 42, single IM Example 11A 20 mg/kg equivalent of EFdA) was “BQL (BQL = below quantification limit, 0.3-0.5 ng/mL for Example 11A and 0.1-0.3 ng/mL for EFdA)”, the “Mean concentration of EFdA” value (day 49, single IM Example 11A 20 mg/kg equivalent of EFdA) was “BQL (BQL = below quantification limit, 0.3-0.5 ng/mL for Example 11A and 0.1-0.3 ng/mL for EFdA)” and the “Mean concentration of EFdA” value (day 56, single IM Example 11A 20 mg/kg equivalent of EFdA) was “BQL (BQL = below quantification limit, 0.3-0.5 ng/mL for Example 11A and 0.1-0.3 ng/mL for EFdA)”. For the same molecule, the “Mean concentration of EFdA” value [1] was “BQL (BQL = below quantification limit, 0.3-0.5 ng/mL for Example 11A and 0.1-0.3 ng/mL for EFdA)”, the “Mean concentration of Example 11A” value [1] was “BQL (BQL = below quantification limit, 0.3-0.5 ng/mL for Example 11A and 0.1-0.3 ng/mL for EFdA)” and the “Mean concentration of EFdA” value [2] was “BQL (BQL = below quantification limit, 0.3-0.5 ng/mL for Example 11A and 0.1-0.3 ng/mL for EFdA)”. The “Mean concentration of Example 11A” value [2] was “BQL (BQL = below quantification limit, 0.3-0.5 ng/mL for Example 11A and 0.1-0.3 ng/mL for EFdA)”, the “Mean concentration of EFdA” value [3] was “BQL (BQL = below quantification limit, 0.3-0.5 ng/mL for Example 11A and 0.1-0.3 ng/mL for EFdA)” and the “Mean concentration of Example 11A” value [3] was “BQL (BQL = below quantification limit, 0.3-0.5 ng/mL for Example 11A and 0.1-0.3 ng/mL for EFdA)”. The “Mean concentration of EFdA” value [4] was “BQL (BQL = below quantification limit, 0.3-0.5 ng/mL for Example 11A and 0.1-0.3 ng/mL for EFdA)”, the “Mean concentration of Example 11A” value [4] was “BQL (BQL = below quantification limit, 0.3-0.5 ng/mL for Example 11A and 0.1-0.3 ng/mL for EFdA)” and the “Mean concentration of EFdA” value [5] was “BQL (BQL = below quantification limit, 0.3-0.5 ng/mL for Example 11A and 0.1-0.3 ng/mL for EFdA)”. The “Mean concentration of Example 11A” value [5] was “BQL (BQL = below quantification limit, 0.3-0.5 ng/mL for Example 11A and 0.1-0.3 ng/mL for EFdA)”, the concentration at 1 day (male, Wistar Han, rat, whole blood, intramuscular, day 1, single IM Example 11A 20 mg/kg equivalent of EFdA, read-out: Mean concentration of Example 11A) was 207 ng/mL and the concentration at 7 day (male, Wistar Han, rat, whole blood, intramuscular, single IM Example 11A 20 mg/kg equivalent of EFdA, read-out: Mean concentration of Example 11A) was 6.93 ng/mL. For the same molecule, the concentration at 14 day (male, Wistar Han, rat, whole blood, intramuscular, day 14, single IM Example 11A 20 mg/kg equivalent of EFdA, read-out: Mean concentration of Example 11A) was 0.991 ng/mL, the concentration at 21 day (male, Wistar Han, rat, whole blood, intramuscular, day 21, single IM Example 11A 20 mg/kg equivalent of EFdA, read-out: Mean concentration of Example 11A) was 2.68 ng/mL and the concentration at 28 day (male, Wistar Han, rat, whole blood, intramuscular, day 28, single IM Example 11A 20 mg/kg equivalent of EFdA, read-out: Mean concentration of Example 11A) was 2 ng/mL. For the same molecule, the concentration at 35 day (male, Wistar Han, rat, whole blood, intramuscular, day 35, single IM Example 11A 20 mg/kg equivalent of EFdA, read-out: Mean concentration of Example 11A) was 1.35 ng/mL, the concentration at 42 day (male, Wistar Han, rat, whole blood, intramuscular, day 42, single IM Example 11A 20 mg/kg equivalent of EFdA, read-out: Mean concentration of Example 11A) was 1.03 ng/mL and the concentration at 49 day (male, Wistar Han, rat, whole blood, intramuscular, day 49, single IM Example 11A 20 mg/kg equivalent of EFdA, read-out: Mean concentration of Example 11A) was 0.929 ng/mL. For the same molecule, the concentration at 56 day (male, Wistar Han, rat, whole blood, intramuscular, day 56, single IM Example 11A 20 mg/kg equivalent of EFdA, read-out: Mean concentration of Example 11A) was 0.95 ng/mL.
In the case of `C#C[C@]1(COP(=O)(N[C@@H](C)C(=O)OCCCCCCCCCCCCCCCCCCCCCC)Oc2ccccc2)O[C@@H](n2cnc3c(N)nc(F)nc32)C[C@@H]1O` (single isomer, unassigned) [Example 16A], the “Mean concentration of EFdA” value (day 1, single IM Example 16A 20 mg/kg equivalent of EFdA) is reported as “BQL (BQL = below quantification limit, 0.3 ng/mL for both)”, the “Mean concentration of Example 16A” value (day 14, single IM Example 16A 20 mg/kg equivalent of EFdA) is reported as “BQL (BQL = below quantification limit, 0.3 ng/mL for both)” and the “Mean concentration of EFdA” value [6] is reported as “BQL (BQL = below quantification limit, 0.3 ng/mL for both)”. For the same molecule, the “Mean concentration of Example 16A” value [6] was “BQL (BQL = below quantification limit, 0.3 ng/mL for both)”, the “Mean concentration of EFdA” value [7] was “BQL (BQL = below quantification limit, 0.3 ng/mL for both)” and the “Mean concentration of Example 16A” value [7] was “BQL (BQL = below quantification limit, 0.3 ng/mL for both)”. The concentration at 1 day (male, Wistar Han, rat, in vivo, day 1, single IM Example 16A 20 mg/kg equivalent of EFdA, read-out: Mean concentration of Example 16A) was 3.05 ng/mL and the concentration at 7 day (male, Wistar Han, rat, in vivo, single IM Example 16A 20 mg/kg equivalent of EFdA, read-out: Mean concentration of Example 16A) was 1.03 ng/mL.
With `C#C[C@]1(COP(=O)(N[C@@H](Cc2ccccc2)C(=O)OCCCCCCCCCCCCCC)Oc2ccccc2)O[C@@H](n2cnc3c(N)nc(F)nc32)C[C@@H]1O` (single isomer, unassigned) [Example 18A] the “Mean concentration of EFdA” value (day 28, single IM Example 18A 54 mg/kg) was “BQL (BQL = below quantification limit, 0.3 ng/mL for both)”, the “Mean concentration of EFdA” value [8] was “BQL (BQL = below quantification limit, 0.3 ng/mL for both)” and the “Mean concentration of Example 18A” value [8] was “BQL (BQL = below quantification limit, 0.3 ng/mL for both)”. The “Mean concentration of EFdA” value [9] was “BQL (BQL = below quantification limit, 0.3 ng/mL for both)”, the “Mean concentration of Example 18A” value [9] was “BQL (BQL = below quantification limit, 0.3 ng/mL for both)” and the “Mean concentration of EFdA” value [10] was “BQL (BQL = below quantification limit, 0.3 ng/mL for both)”. For the same molecule, the “Mean concentration of Example 18A” value [10] was “BQL (BQL = below quantification limit, 0.3 ng/mL for both)”, the concentration at 1 day (male, Wistar Han, rat, in vivo, day 1, single IM Example 18A 54 mg/kg, read-out: Mean concentration of Example 18A) was 2.47 ng/mL and the concentration at 7 day (male, Wistar Han, rat, in vivo, single IM Example 18A 54 mg/kg, read-out: Mean concentration of Example 18A) was 12 ng/mL. For the same molecule, the concentration at 14 day (male, Wistar Han, rat, in vivo, day 14, single IM Example 18A 54 mg/kg, read-out: Mean concentration of Example 18A) was 1.44 ng/mL, the concentration at 21 day (male, Wistar Han, rat, in vivo, day 21, single IM Example 18A 54 mg/kg, read-out: Mean concentration of Example 18A) was 0.947 ng/mL and the concentration at 28 day (male, Wistar Han, rat, in vivo, day 28, single IM Example 18A 54 mg/kg, read-out: Mean concentration of Example 18A) was 0.614 ng/mL.
With `C#C[C@]1(COP(=O)(N[C@@H](Cc2ccccc2)C(=O)OCCCCCCCCCCCCCCC)Oc2ccccc2)O[C@@H](n2cnc3c(N)nc(F)nc32)C[C@@H]1O` (single isomer, unassigned) [Example 19A] the “Mean concentration of EFdA” value (day 28, single IM Example 19A 55 mg/kg) was “BQL (BQL = below quantification limit, 0.3 ng/mL for both)”, the “Mean concentration of EFdA” value [11] was “BQL (BQL = below quantification limit, 0.3 ng/mL for both)” and the “Mean concentration of Example 19A” value [11] was “BQL (BQL = below quantification limit, 0.3 ng/mL for both)”. The “Mean concentration of EFdA” value [12] was “BQL (BQL = below quantification limit, 0.3 ng/mL for both)”, the “Mean concentration of Example 19A” value [12] was “BQL (BQL = below quantification limit, 0.3 ng/mL for both)” and the “Mean concentration of EFdA” value [13] was “BQL (BQL = below quantification limit, 0.3 ng/mL for both)”. For the same molecule, the “Mean concentration of Example 19A” value [13] was “BQL (BQL = below quantification limit, 0.3 ng/mL for both)”, the concentration at 1 day (male, Wistar Han, rat, in vivo, day 1, single IM Example 19A 55 mg/kg, read-out: Mean concentration of Example 19A) was 2.37 ng/mL and the concentration at 7 day (male, Wistar Han, rat, in vivo, single IM Example 19A 55 mg/kg, read-out: Mean concentration of Example 19A) was 9.08 ng/mL. It also gave a concentration at 14 day (male, Wistar Han, rat, in vivo, day 14, single IM Example 19A 55 mg/kg, read-out: Mean concentration of Example 19A) of 3.06 ng/mL, a concentration at 21 day (male, Wistar Han, rat, in vivo, day 21, single IM Example 19A 55 mg/kg, read-out: Mean concentration of Example 19A) of 1.45 ng/mL and a concentration at 28 day (male, Wistar Han, rat, in vivo, day 28, single IM Example 19A 55 mg/kg, read-out: Mean concentration of Example 19A) of 0.909 ng/mL.

Reference: patent US20230151049A1, “Compounds Useful in HIV Therapy” (priority 2020, published 2023)
